Values joined by “and” are separate entries in the source; they are usually repeats but may differ in a detail not shown here. Identical values can stand only once.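 1) Cells in 96-well plates. 2) Compound, 48 h, 5 concentrations. 3) Linear interpolation between surrounding doses. 4) Unreached endpoint = highest concentration. GI50 marks 50% less growth. Definition used: TGI = concentration required for complete inhibition of growth.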 *1 amine or outer side, *2 acyl side, *3 side chain or, on linkers, in order; H or OH if unused. Where a SMILES comes first, the peptide text is derived from it. Bridges are numbered along the chain shown (N, C = ends). [ ]: non-standard residue; d: D form. The star is where a group is joined. Phe(3-Me) = Cc1cccc(C[C@H](N)C(=O)O)c1; NH(4-Cl-2-F-phenyl) = Fc1cc(Cl)ccc1N*; Pro(4R-Me) = C[C@H]1CN[C@H](C(=O)O)C1; Hyp = O=C(O)[C@@H]1C[C@@H](O)CN1; aThr = C[C@H](O)[C@H](N)C(=O)O; Pip = O=C(O)[C@@H]1CCCCN1; CO = O=C([*:1])[*:2]
Tested on: MDA-MB-468 breast
Experiment: inhibition of tumour cell growth, NCI panel, 48 h

Compound	GI50	TGI
COc1cc(-c2cc(-c3nc4ccccc4[nH]3)[nH]n2)cc(OC)c1OC	0.935 µM	16.6 µM
Cc1nc(NC(=S)Nc2ccc(F)cc2)sc1C(=O)NNC(=S)Nc1ccc(F)cc1	2.22 µM	9.53 µM
COc1ccc(C(=O)c2cc(OC)c(OC)c(OC)c2)cc1O	0.239 µM	0.779 µM
CCS(=O)(=O)c1ccc(OC)c(Nc2nccc(N(C)c3ccc4c(C)[nH]nc4c3)n2)c1	3.48 µM	9.32 µM
Cc1cccc(C[C@H](NC(=O)Nc2ccc(Cl)cc2F)C(=O)N[C@@H]2C(=O)N3C[C@H](O)C[C@H]3C(=O)N3CCCC[C@H]3C(=O)N[C@@H](C)C(=O)N3C[C@H](C)C[C@H]3C(=O)O[C@H]2C)c1 ({NH(4-Cl-2-F-phenyl)-CO}-[Phe(3-Me)][aThr][Hyp][Pip]A[Pro(4R-Me)]; ester 2-C)	0.253 µM	1.03 µM
Cc1nn2c(/C=C3/C(=O)Nc4ccc(Cl)cc43)c(-c3ccccc3)nc2s1	3.47 µM	14.7 µM
C#CC[C@H](c1nc2cc(Cl)ccc2c(=O)n1Nc1ccccc1)N(CCCN)C(=O)c1cccc(Cl)c1F	0.0421 µM	0.755 µM
Cc1c(CN2CCC(Nc3ncnc4sc(CC(F)(F)F)cc34)CC2)ccc2c1cc(C#N)n2Cc1cn[nH]c1	0.842 µM and 0.781 µM	3.82 µM and 6.25 µM
COc1ccc(/C=C(\C#N)c2cc(OC)c3c(c2)OCO3)cc1	0.0173 µM	0.15 µM
Cn1c2ccccc2c2nnc(N/N=C/c3ccccn3)nc21	0.293 µM	–
CCC(C)/C=C(C)/C=C/C(=O)c1c(O)c(-c2ccc(O)cc2)c[nH]c1=O (configuration not stated)	1.87 µM	7.76 µM
N#CSCC1CC(O)(c2ccccc2)C(c2ccccc2)C(c2ccc(F)cc2)O1 (configuration not stated)	3.51 µM	13.1 µM
CCc1ccc(CCC(=O)Nc2ncc(Cc3ccccc3)s2)o1	1.55 µM	> 100 µM
O=C(NNc1nc2cc(F)c(F)cc2n2c(CN3CC4CNCC4C3)ccc12)c1ncccn1 (configuration not stated)	2.04 µM	9.82 µM
CSc1ccc(/C(=N/N=C(N)N)c2ccc(F)cc2)cc1	0.398 µM	2.13 µM
O=C(Nc1ccncc1)C(=O)c1cn(S(=O)(=O)c2ccccc2F)c2ccccc12	1.51 µM	9.81 µM
Cc1c(Cl)cccc1NC(=O)c1sc2nc3c(cc2c1N)CCCCCC3	0.13 µM	19.9 µM
CCOc1cc2ncc(C#N)c(Nc3ccc(F)c(Cl)c3)c2cc1NC(=O)/C=C/CN(C)C	0.00238 µM	0.0351 µM
O=C1C(Cl)=C(N2CCOCC2)C(=O)c2ccccc21	1.44 µM	2.94 µM
Cc1ccc(C(=O)N/N=C/c2cccc(Oc3ccccc3)c2)cn1	4.43 µM	> 34.9 µM
O=C1CNc2cc(N3CCN(c4cccc(C(F)(F)F)c4)CC3)ccc2N1	4.92 µM	43.6 µM
CN1CCN(Cc2ccc(NC(=O)c3[nH]ncc3Nc3ncnc4c3CCC4)cc2)CC1	2 µM	5.84 µM
O=C(Nc1ccc(Nc2ccncc2)cc1)c1ccc(Nc2ccnc3ccc([N+](=O)[O-])cc23)cc1	> 100 µM	> 100 µM
Cc1nc(Nc2ccc(F)c(Cl)c2)sc1C(=O)O	1.2 µM	3.79 µM

Compound	GI50	TGI
CCN(CC)CCCC(C)Nc1cnc(C(=O)Nc2cc(F)cc3cccnc23)cn1 (configuration not stated)	2.83 µM and 0.327 µM	–
O=C(O)c1ccc(NS(=O)(=O)c2cccc3cccnc23)cc1	> 100 µM	> 100 µM
Cc1cc2c(C(N)=O)cccc2n1-c1nc2c(c(NCc3ccccc3)n1)CCCN2	0.223 µM	0.477 µM
O=C(CNC(=O)c1cccc2ccccc12)Nc1ccccc1Oc1ccccc1	0.325 µM	5.9 µM
O=C(c1cc(-c2cc3c(cc2C(=O)N2Cc4ccccc4C[C@H]2CN2CCOCC2)OCO3)n2c1CCCC2)N(c1ccccc1)c1ccc(O)cc1	3.07 µM	96.2 µM
COc1ccc(C2c3cc4c(cc3OC(N3CCOCC3)C2C)OCO4)c(OC)c1 (configuration not stated)	7.18 µM	32 µM
O=[N+]([O-])c1cc(Br)cc2c1[nH]c1ccc(Br)cc12	7.52 µM	79.7 µM
c1cncc(CNc2ccccc2-c2nnc(Nc3ccc4c(c3)OCCO4)o2)c1	0.218 µM	0.821 µM
Cc1ccc(NS(=O)(=O)c2cc(C)ccc2C)cc1	1.42 µM	7.28 µM
COc1ccc(C(=O)/C=C/c2cc(C(=O)c3cc(OC)c(OC)c(OC)c3)ccc2OC)cc1	3.03 µM	> 100 µM
C[C@@H]1CCN(C(=O)CC#N)C[C@@H]1N(C)c1ncnc2[nH]ccc12	> 100 µM	> 100 µM
CN(C)CC#Cc1cccc(C(=O)c2cnn(-c3ccc(F)cc3)c2N)c1	13.3 µM	> 25 µM
COc1ccc(Cn2cc3c(c2-c2cc(OC)c(OC)c(OC)c2)CCc2c(CN4CCCC4)noc2-3)cc1	0.28 µM	0.966 µM
COc1cccc(/C=C/C(=O)c2cc3c(N)c(C(=O)Nc4cccc(Cl)c4C)sc3nc2C)c1	0.778 µM	1.82 µM
COc1ccc(C2=C(c3cn(C)c4ccccc34)C(=O)NC2=O)cc1OC	5.86 µM	> 25 µM
O=c1[nH]nc2c3c(cccc13)NC(CN1Cc3ccccc3C1)=N2	7.92 µM	> 100 µM
CCc1nc2ccc(Cc3ccc(C(=O)NO)cc3)cc2c(=O)n1CCc1ccccc1	0.74 µM	2.97 µM
CO/N=C1/NC(=O)/C(=C/c2ccc3ncccc3c2)S1	4.91 µM	> 25 µM
CC1(C)N=C(N)N=C(N)N1c1cccc(CCCCc2ccc(S(=O)(=O)F)cc2Cl)c1	2.13 µM	18.8 µM
COC[C@H]1OC(=O)c2coc3c2[C@@]1(C)C1=C(C3=O)[C@@H]2CCC(=O)[C@@]2(C)C[C@H]1OC(C)=O	0.421 µM	4.62 µM
O=C(N/N=C/c1ccc(O)cc1O)c1ccc(Nc2ccnc(C(F)(F)F)c2)cc1	15.2 µM	> 100 µM
O=C1Nc2cc(OC(F)(F)F)ccc2Oc2ccc(-c3ccnc(N4CCNCC4)c3)cc21	0.394 µM	1.46 µM
Nc1ncc(-c2ccc(C(F)(F)F)cc2)c(NC2CCCCCC2)n1	4.15 µM	> 100 µM

— PubChem BioAssay (NCI)
